Results on 5 molecules are retold here after the supplement of paper PMC10307832.

One assay concerns NCI-H1915. Put plainly: relative viability (nuclei count vs DMSO), 5 days (fraction); higher = more cells survive. The conditions noted are these: first compound 2.53 µM. Put shortly:
(§1)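 Relative viability divides the nuclei count in treated wells by that in vehicle wells. Lung cancer cell lines were seeded in 1536-well plates, dosed by pin tool the next day, and fixed and stained after 5 days in one step with final 0.05% Triton X-100, 1% formaldehyde and 1 ug/ml Hoechst. Dosing was a single drug or a fixed anchor-drug dose plus five library-drug doses (not always all listed) in √10 steps, and values are medians of duplicate plates imaged at 4×.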
For the molecule `Nc1cccc2c1CN(C1CCC(=O)NC1=O)C2=O` (stereo not given) [Lenalidomide] + CCNC(=O)c1noc(-c2cc(C(C)C)c(O)cc2O)c1-c1ccc(CN2CCOCC2)cc1 [Luminespib] (partner 0.01 µM), the relative viability stood at 0.802.
Still for that read-out and setting: as for `Nc1cccc2c1CN(C1CCC(=O)NC1=O)C2=O` (stereo not given) [Lenalidomide] + Nc1ncn([C@H]2C[C@H](O)[C@@H](CO)O2)c(=O)n1 [Decitabine] (partner 2 µM), the figure is 0.274; as for `Nc1cccc2c1CN(C1CCC(=O)NC1=O)C2=O` (stereo not given) [Lenalidomide] + Cc1nc(Nc2ncc(C(=O)Nc3c(C)cccc3Cl)s2)cc(N2CCN(CCO)CC2)n1 [Dasatinib] (partner 0.075 µM), 0.301.
On to `Nc1cccc2c1CN(C1CCC(=O)NC1=O)C2=O` (stereo not given) [Lenalidomide] + N=C(N)NC(=N)NCCc1ccccc1 [Phenformin] (partner 250 µM), for which the relative viability worked out at 0.401.
The same measure, in the same setting: as for `Nc1cccc2c1CN(C1CCC(=O)NC1=O)C2=O` (stereo not given) [Lenalidomide] + CC(=O)c1c(C)c2cnc(Nc3ccc(N4CCNCC4)cn3)nc2n(C2CCCC2)c1=O [Palbociclib] (partner 0.5 µM), the figure is 0.578.

The assay is the same for the next values; noted with them: first compound 8 µM.
`Nc1cccc2c1CN(C1CCC(=O)NC1=O)C2=O` (stereo not given) [Lenalidomide] + CCNC(=O)c1noc(-c2cc(C(C)C)c(O)cc2O)c1-c1ccc(CN2CCOCC2)cc1 [Luminespib] (partner 0.01 µM) gave a relative viability of 0.915.
As for `Nc1cccc2c1CN(C1CCC(=O)NC1=O)C2=O` (stereo not given) [Lenalidomide] + Nc1ncn([C@H]2C[C@H](O)[C@@H](CO)O2)c(=O)n1 [Decitabine] (partner 2 µM), the relative viability was 0.241.
Molecule `Nc1cccc2c1CN(C1CCC(=O)NC1=O)C2=O` (stereo not given) [Lenalidomide] + Cc1nc(Nc2ncc(C(=O)Nc3c(C)cccc3Cl)s2)cc(N2CCN(CCO)CC2)n1 [Dasatinib] (partner 0.075 µM) showed a relative viability of 0.245.
Molecule `Nc1cccc2c1CN(C1CCC(=O)NC1=O)C2=O` (stereo not given) [Lenalidomide] + N=C(N)NC(=N)NCCc1ccccc1 [Phenformin] (partner 250 µM) displayed a relative viability of 0.406.
Regarding `Nc1cccc2c1CN(C1CCC(=O)NC1=O)C2=O` (stereo not given) [Lenalidomide] + CC(=O)c1c(C)c2cnc(Nc3ccc(N4CCNCC4)cn3)nc2n(C2CCCC2)c1=O [Palbociclib] (partner 0.5 µM), the relative viability is 0.486.

The test system of the next assay is NCI-H2405. The description is as above. The conditions noted are these: first compound 0.253 µM. Put shortly:
as §1
In the case of `Nc1cccc2c1CN(C1CCC(=O)NC1=O)C2=O` (stereo not given) [Lenalidomide] + CCNC(=O)c1noc(-c2cc(C(C)C)c(O)cc2O)c1-c1ccc(CN2CCOCC2)cc1 [Luminespib] (partner 0.01 µM), the relative viability came to 0.665.
Molecule `Nc1cccc2c1CN(C1CCC(=O)NC1=O)C2=O` (stereo not given) [Lenalidomide] + Nc1ncn([C@H]2C[C@H](O)[C@@H](CO)O2)c(=O)n1 [Decitabine] (partner 2 µM) gave a relative viability of 0.719.
The same measure, in the same setting: as for `Nc1cccc2c1CN(C1CCC(=O)NC1=O)C2=O` (stereo not given) [Lenalidomide] + Cc1nc(Nc2ncc(C(=O)Nc3c(C)cccc3Cl)s2)cc(N2CCN(CCO)CC2)n1 [Dasatinib] (partner 0.075 µM), the figure is 0.23; as for `Nc1cccc2c1CN(C1CCC(=O)NC1=O)C2=O` (stereo not given) [Lenalidomide] + N=C(N)NC(=N)NCCc1ccccc1 [Phenformin] (partner 250 µM), 0.382.
`Nc1cccc2c1CN(C1CCC(=O)NC1=O)C2=O` (stereo not given) [Lenalidomide] + CC(=O)c1c(C)c2cnc(Nc3ccc(N4CCNCC4)cn3)nc2n(C2CCCC2)c1=O [Palbociclib] (partner 0.5 µM): the relative viability came out at 0.513.

Staying with this assay, now noted: first compound 0.8 µM.
`Nc1cccc2c1CN(C1CCC(=O)NC1=O)C2=O` (stereo not given) [Lenalidomide] + CCNC(=O)c1noc(-c2cc(C(C)C)c(O)cc2O)c1-c1ccc(CN2CCOCC2)cc1 [Luminespib] (partner 0.01 µM) yielded a relative viability of 0.76.
With `Nc1cccc2c1CN(C1CCC(=O)NC1=O)C2=O` (stereo not given) [Lenalidomide] + Nc1ncn([C@H]2C[C@H](O)[C@@H](CO)O2)c(=O)n1 [Decitabine] (partner 2 µM), the relative viability worked out at 0.817.
In turn, `Nc1cccc2c1CN(C1CCC(=O)NC1=O)C2=O` (stereo not given) [Lenalidomide] + Cc1nc(Nc2ncc(C(=O)Nc3c(C)cccc3Cl)s2)cc(N2CCN(CCO)CC2)n1 [Dasatinib] (partner 0.075 µM) displayed a relative viability of 0.185.
In the case of `Nc1cccc2c1CN(C1CCC(=O)NC1=O)C2=O` (stereo not given) [Lenalidomide] + N=C(N)NC(=N)NCCc1ccccc1 [Phenformin] (partner 250 µM), the relative viability came to 0.416.
The same measure, in the same setting: the value for `Nc1cccc2c1CN(C1CCC(=O)NC1=O)C2=O` (stereo not given) [Lenalidomide] + CC(=O)c1c(C)c2cnc(Nc3ccc(N4CCNCC4)cn3)nc2n(C2CCCC2)c1=O [Palbociclib] (partner 0.5 µM) was 0.529.

Staying with this assay, now noted: first compound 2.53 µM.
As to `Nc1cccc2c1CN(C1CCC(=O)NC1=O)C2=O` (stereo not given) [Lenalidomide] + CCNC(=O)c1noc(-c2cc(C(C)C)c(O)cc2O)c1-c1ccc(CN2CCOCC2)cc1 [Luminespib] (partner 0.01 µM), the relative viability worked out at 0.757.
Same read-out and setting: the value for `Nc1cccc2c1CN(C1CCC(=O)NC1=O)C2=O` (stereo not given) [Lenalidomide] + Nc1ncn([C@H]2C[C@H](O)[C@@H](CO)O2)c(=O)n1 [Decitabine] (partner 2 µM) was 0.782; that for `Nc1cccc2c1CN(C1CCC(=O)NC1=O)C2=O` (stereo not given) [Lenalidomide] + Cc1nc(Nc2ncc(C(=O)Nc3c(C)cccc3Cl)s2)cc(N2CCN(CCO)CC2)n1 [Dasatinib] (partner 0.075 µM) was 0.217.
On the same count and under the same terms, the value for `Nc1cccc2c1CN(C1CCC(=O)NC1=O)C2=O` (stereo not given) [Lenalidomide] + N=C(N)NC(=N)NCCc1ccccc1 [Phenformin] (partner 250 µM) was 0.416.
On the same count and under the same terms, the value for `Nc1cccc2c1CN(C1CCC(=O)NC1=O)C2=O` (stereo not given) [Lenalidomide] + CC(=O)c1c(C)c2cnc(Nc3ccc(N4CCNCC4)cn3)nc2n(C2CCCC2)c1=O [Palbociclib] (partner 0.5 µM) was 0.524.

Staying with this assay, now noted: first compound 8 µM.
`Nc1cccc2c1CN(C1CCC(=O)NC1=O)C2=O` (stereo not given) [Lenalidomide] + CCNC(=O)c1noc(-c2cc(C(C)C)c(O)cc2O)c1-c1ccc(CN2CCOCC2)cc1 [Luminespib] (partner 0.01 µM) displayed a relative viability of 0.644.
Molecule `Nc1cccc2c1CN(C1CCC(=O)NC1=O)C2=O` (stereo not given) [Lenalidomide] + Nc1ncn([C@H]2C[C@H](O)[C@@H](CO)O2)c(=O)n1 [Decitabine] (partner 2 µM) displayed a relative viability of 0.632.
`Nc1cccc2c1CN(C1CCC(=O)NC1=O)C2=O` (stereo not given) [Lenalidomide] + Cc1nc(Nc2ncc(C(=O)Nc3c(C)cccc3Cl)s2)cc(N2CCN(CCO)CC2)n1 [Dasatinib] (partner 0.075 µM) returned a relative viability of 0.21.
The same measure, in the same setting: the value for `Nc1cccc2c1CN(C1CCC(=O)NC1=O)C2=O` (stereo not given) [Lenalidomide] + N=C(N)NC(=N)NCCc1ccccc1 [Phenformin] (partner 250 µM) was 0.351.
`Nc1cccc2c1CN(C1CCC(=O)NC1=O)C2=O` (stereo not given) [Lenalidomide] + CC(=O)c1c(C)c2cnc(Nc3ccc(N4CCNCC4)cn3)nc2n(C2CCCC2)c1=O [Palbociclib] (partner 0.5 µM) yielded a relative viability of 0.45.
